Assay [1] concerns the target T1, Transcription factor p65 (Human, UniProt Q04206). Put plainly: Induction of NF-kappaB p65 nuclear translocation in HUVEC cells by immunostaining.
Assay [2] addresses T1, Transcription factor p65. Put plainly: Potentiation of TNF-alpha-induced NF-kappaB p65 nuclear translocation in HUVEC cells by immunostaining.

T1 sequence (Q04206 whole entry): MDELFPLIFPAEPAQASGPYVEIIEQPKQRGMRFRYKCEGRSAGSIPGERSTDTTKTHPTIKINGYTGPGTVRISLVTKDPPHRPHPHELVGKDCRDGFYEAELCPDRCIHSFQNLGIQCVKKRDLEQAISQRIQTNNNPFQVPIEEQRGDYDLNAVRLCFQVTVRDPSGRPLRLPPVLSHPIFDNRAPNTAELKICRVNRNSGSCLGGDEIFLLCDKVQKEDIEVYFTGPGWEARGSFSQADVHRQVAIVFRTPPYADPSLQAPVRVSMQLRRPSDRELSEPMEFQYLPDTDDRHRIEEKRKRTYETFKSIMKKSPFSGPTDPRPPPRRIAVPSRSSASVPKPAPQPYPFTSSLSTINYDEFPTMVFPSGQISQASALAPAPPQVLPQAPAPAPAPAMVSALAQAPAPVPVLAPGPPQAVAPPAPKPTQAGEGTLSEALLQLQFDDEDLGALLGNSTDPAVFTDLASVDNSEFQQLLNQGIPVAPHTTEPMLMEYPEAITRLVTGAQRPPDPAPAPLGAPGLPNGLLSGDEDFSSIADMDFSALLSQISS

On to `COc1cccc2nc(-c3cccs3)nc(NN3C(=O)C=C(C)C3=O)c12` [1-(5-Methoxy-2-thiophen-2-yl-quinazolin-4-ylamino)-3-methyl-pyrrole-2,5-dione], for which the EC50 at Transcription factor p65 [1] was 1.6 µM; at Transcription factor p65 [2], 0.38 µM.
Regarding `COc1ccc2nc(-c3cccs3)nc(NN3C(=O)C=C(C)C3=O)c2c1` [1-(6-methoxy-2-(thiophen-2-yl)quinazolin-4-ylamino)-3-methyl-1H-pyrrole-2,5-dione], the EC50 at Transcription factor p65 [1] was determined as 9.8 µM; on Transcription factor p65 [2] it was 42 µM.
For `COc1ccc(Cl)c2nc(-c3cccs3)nc(NN3C(=O)C=C(C)C3=O)c12` [1-(8-chloro-5-methoxy-2-(thiophen-2-yl)quinazolin-4-ylamino)-3-methyl-1H-pyrrole-2,5-dione], in that order: 2.4 µM and 0.31 µM.
